This note sets out measurements from ChEMBL document CHEMBL1201862, “PubChem BioAssay data set” (2004).

“And” between values parts separate entries of the source, which are not always exact repeats. Identical values can stand only once.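 Tested at 5 concentrations; 48 h exposure; 96-well plates; endpoints linearly interpolated, else capped at highest concentration. The concentration for 50% growth inhibition is given as GI50.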 The source made the active and inactive calls. No stated cut-off is given here; in the data, active = GI50 up to about 1.1 µM and inactive = higher.

Holding throughout (test): NCI-60 cell line screen, 48 h
Assay [1] deals with A549.
For assay [2], the system named is CAKI-1.
Assay [3] deals with HCT-116.
Assay [4] has as its system HOP-92.
For assay [5], the system named is HT-29.
Assay [6] has as its system KM12.
Assay [7] relates to M14.
For assay [8], the system named is MCF7.
In assay [9] the test system is MDA-MB-231.
Assay [10] has as its system MDA-MB-435.
The subject of assay [11] is MDA-N.
Assay [12] relates to MOLT-4.
Assay [13] concerns NCI/ADR-RES.
Assay [14] relates to OVCAR-4.
Assay [15] relates to SF-539.
Assay [16] has as its system SK-MEL-28.
The subject of assay [17] is SK-MEL-2.
Assay [18] has as its system SK-MEL-5.
Assay [19] deals with SN12C.
Assay [20] has as its system UO-31.

As to `CC(=O)Oc1ccc(/C=C/C(=O)NCCOC(=O)/C=C/c2ccc(OC(C)=O)c(OC(C)=O)c2)cc1OC(C)=O`, the GI50 in [1] is 57.5 µM (inactive); in assay [2], 32.8 µM (inactive); in assay [3], 14.5 µM (inactive); in assay [4] it was 28.2 µM (inactive); in assay [5] it was 25.6 µM (inactive); in assay [6] it was 32.4 µM (inactive). For the same compound, the GI50 in assay [7] was 27.8 µM (inactive); in [8], 29.5 µM (inactive); in assay [9] it was 45.2 µM (inactive); in assay [10] it was 31.7 µM (inactive); in [11] it was 22.5 µM (inactive); in assay [12], 4.8 µM (inactive). Also, the GI50 in [13] is 70.1 µM (inactive); in assay [14], 18.4 µM (inactive); in [15], 35.7 µM (inactive); in [16], 34.4 µM (inactive); in assay [17] it was 46.5 µM (inactive); in assay [18] it was 17.6 µM (inactive). Moreover, the values for the GI50 in assay [19] and in assay [20] were 26.1 µM (inactive) and 22.9 µM (inactive), respectively.

For `COc1ccc(/C=N/N=C(\N)NO)c(O)c1`, the GI50 in [1] was > 10 µM (inactive); in [2] it was 4.11 µM (inactive); in [3], 3.53 µM (inactive); in assay [4], > 10 µM (inactive); in assay [5], 5.66 µM (inactive); in assay [6], 4.57 µM (inactive). For the same compound, the GI50 in assay [7] is 5.01 µM (inactive); in [8], 4.34 µM (inactive); in assay [9], > 10 µM (inactive); in [10] it was 2.09 µM (inactive); in [11] it was > 10 µM (inactive); in [12], > 10 µM (inactive). The GI50 is 3.92 µM (inactive) in assay [13]; > 10 µM (inactive) in [14]; > 10 µM (inactive) in assay [15]; > 10 µM (inactive) in assay [16]; > 10 µM (inactive) in assay [17]; 3.53 µM (inactive) in [18]. Also, the results for the GI50 in [19] and in assay [20] were 8.53 µM (inactive) and > 10 µM (inactive), respectively.

With `CC(C)(CN)SCc1ccccc1`, the GI50 in assay [1], in assay [2], in [3], in assay [4], in assay [5] and in assay [6] was > 100 µM (inactive) each time. For the same compound, the GI50 in assay [7], in [8], in assay [9], in assay [10], in assay [11] and in assay [12] was > 100 µM (inactive) each time. Further, the GI50 in [13], in assay [14], in [15], in [16], in assay [17] and in assay [18] was > 100 µM (inactive) throughout. Besides, the GI50 in assay [19] and in [20] was > 100 µM (inactive) each time.

Consider `Nc1ncnc2c1ncn2CC(O)C(=O)O` (stereo not drawn), for which the GI50 in assay [1], in [2], in assay [3], in assay [4], in assay [5] and in assay [6] was > 100 µM (inactive) in each case. The GI50 in assay [7], in assay [8], in [9], in assay [10], in [11] and in [12] was > 100 µM (inactive) throughout. The GI50 in assay [13], in assay [14], in assay [15], in assay [16], in assay [17] and in assay [18] was > 100 µM (inactive) in each case. Also, the GI50 in [19] and in assay [20] was > 100 µM (inactive) each time.

As for `NCCCc1nonc1C(=O)O`, the GI50 in [1], in assay [2], in assay [3], in assay [4], in [5] and in [6] was > 100 µM (inactive) each time. Moreover, the GI50 in assay [7], in assay [8], in assay [9], in assay [10], in assay [11] and in assay [12] was > 100 µM (inactive) throughout. Further, the GI50 in assay [13], in assay [14], in assay [15], in assay [16], in assay [17] and in assay [18] was > 100 µM (inactive) in each case. The GI50 in [19] and in [20] was > 100 µM (inactive) throughout.

As to `CC[C@@H]1C[C@@H](O)[C@@H]2[C@H](O)[C@H](O)CN2C1`, the GI50 in [1], in assay [2], in assay [3], in assay [4], in assay [5] and in [6] was > 100 µM (inactive) in each case. For the same compound, the GI50 in [7], in assay [8], in assay [9], in [10], in assay [11] and in assay [12] was > 100 µM (inactive) throughout. For the same compound, the GI50 in assay [13], in assay [14], in assay [15], in [16], in [17] and in assay [18] was > 100 µM (inactive) each time. In addition, the GI50 in [19] and in assay [20] was > 100 µM (inactive) each time.

As for `CC(=O)C1C(=O)C(=O)N(c2cccc([N+](=O)[O-])c2)C1=O` (stereo not drawn), the GI50 in assay [1], in assay [2], in assay [3], in assay [4], in assay [5] and in assay [6] was > 100 µM (inactive) in each case. Further, the GI50 in assay [7], in assay [8], in assay [9], in [10], in assay [11] and in assay [12] was > 100 µM (inactive) each time. The GI50 in assay [13], in assay [14], in [15], in assay [16], in assay [17] and in assay [18] was > 100 µM (inactive) in each case. Moreover, the GI50 in assay [19] and in assay [20] was > 100 µM (inactive) each time.

On to `CC(=O)N1C(C(=O)NNc2ccccc2)CSC1c1ccccc1` (stereo not drawn), for which the GI50 in assay [1] was 71 µM (inactive); in assay [2], > 100 µM (inactive); in [3], > 100 µM (inactive); in assay [4], > 100 µM (inactive); in assay [5], > 100 µM (inactive); in assay [6] it was 71.3 µM (inactive). Also, the GI50 in assay [7] was 16.7 µM (inactive); in [8], > 100 µM (inactive); in assay [9], > 100 µM (inactive); in assay [10] it was 16.7 µM (inactive); in assay [11], > 100 µM (inactive); in assay [12], 4 µM (inactive). In addition, the GI50 in assay [13] is > 100 µM (inactive); in assay [14], > 100 µM (inactive); in assay [15] it was 62.8 µM (inactive); in assay [17], > 100 µM (inactive); in [18], > 100 µM (inactive); in [19], > 100 µM (inactive). The GI50 in [20] was 70.8 µM (inactive).

With `CCCCCCCCCCCCCC(=O)O[C@H]1CC[C@H](NC(=O)[C@H](OC)[C@H](O)[C@@H](O)[C@H](O)/C=C/C(C)C)C(=O)NC1` [BENGAMIDE A], the GI50 is 0.00512 µM (active) in assay [1]; 0.292 µM (active) in [2]; 0.00512 µM (active) in [3]; 0.0204 µM (active) in assay [4]; 0.00619 µM (active) in assay [5]; 0.00512 µM (active) in assay [6]. Besides, the GI50 in [7] was 0.00601 µM (active); in [8], 0.0392 µM (active); in assay [9] it was 0.137 µM (active); in [10] it was 0.204 µM (active); in assay [11] it was 0.0598 µM (active); in assay [12], 0.00512 µM (active). For the same compound, the GI50 in assay [13] was 5.18 µM (inactive); in assay [14] it was 0.0255 µM (active); in assay [15] it was 0.0197 µM (active); in assay [16], < 0.0103 µM (active); in assay [17] it was 0.251 µM (active); in assay [18], 0.0105 µM (active). Moreover, the GI50 in [19] was 0.00542 µM (active); in assay [20] it was 0.106 µM (active).

For `Cc1c(Cl)cccc1NC(=O)CC1Sc2ccccc2NC1=O` (stereo not drawn), the GI50 is 19.8 µM (inactive) and 29.2 µM (inactive) in [1]; 36.3 µM (inactive) and 42.2 µM (inactive) in [2]; 13.9 µM (inactive) and 15.8 µM (inactive) in assay [3]; 17.7 µM (inactive) and 33 µM (inactive) in assay [4]; 13.9 µM (inactive) in assay [5]; 11 µM (inactive) and 16.6 µM (inactive) in [6]. Moreover, the GI50 was 32.3 µM (inactive) and 22.6 µM (inactive) in assay [7]; 11 µM (inactive) in assay [8]; 14 µM (inactive) in assay [9]; 2.82 µM (inactive) in [10]; 2.71 µM (inactive) in assay [11]; 24.4 µM (inactive) and 26.5 µM (inactive) in assay [12]. In addition, the GI50 in assay [13] was 17 µM (inactive); in [14], 22 µM (inactive) and 16.5 µM (inactive); in assay [15], 17.9 µM (inactive) and 20.9 µM (inactive); in assay [17] it was 16.4 µM (inactive) and 17.9 µM (inactive); in assay [18], 14.2 µM (inactive) and 10.5 µM (inactive); in [19], 25.1 µM (inactive) and 47.2 µM (inactive). The GI50 in assay [20] is 19.4 µM (inactive) and 19.6 µM (inactive).
